Source: patent US11285128B2, “Homogenous antibody drug conjugates via enzymatic methods” (CSPC Megalith Biopharmaceutical Co., Ltd., priority 2014, dated 2022)

B1: TG_SM: mTgase from S. mobaraensis, purified from Ajinomoto's Activa TI (SEQ ID NO:18) (protein)
chain: DSDDRVTPPAEPLDRMPDPYRPSYGRAETVVNNYIRKWQQVYSHRDGRKQQMTEEQREWLSYGCVGVTWVNSGQYPTNRLAFASFDEDRFKNELKNGRPRSGETRAEFEGRVAKESFDEEKGFQRAREVASVMNRALENAHDESAYLDNLKKELANGNDALRNEDARSPFYSALRNTPSFKERNGGNHDPSRMKAVIYSKHFWSGQDRSSSADKRKYGDPDAFRPAPGTGLVDMSRDRNIPRSPTSPGEGFVNFDYGWFGAQTEADADKTVWTHGNHYHAPNGSLGAMHVYESKFRNWSEGYSDFDRGAYVITFIPKSWNTAPDKVKQGWP

Columns and labels:
[1] = test system: BT474 cells; test: BT474 cell-based assay; conditions: Trastuzumab-MMAE conjugates, Table 4
[2] = test system: SK-BR-3 cells; test: In vitro cell viability assay (CellTiter Blue) in SK-BR-3 cells; assay type: cell-based; conditions: Trastuzumab-MMAE conjugates
Method: SK-BR-3 cells were seeded in 96 well black clear-bottom plates at 10K cells/well and cultured for 24 hours. Cells were treated for 96 hours with 2 fold serially diluted antibody-drug conjugates in triplicates. Cells viability was determined by […]™ Blue Cell Viability Assay (Promega, Madison, Wis.). Relative cell viability was determined as a percentage of untreated control. IC50 was calculated using a four parameter logistic model from XLfit.

[3] = In vivo stability in blood of NCI N87 xenograft mice (sandwich ELISA, ratio ADC/mAb); conditions: blood samples up to 21 days
Method: After ADC administration, blood samples of 20 μl were taken every 1-2 days up to 21 days by poking mouse tails and mixed with 120 μl of storage buffer (PBS with 10 mM EDTA and 0.1 M NH4Cl). Then total trastuzumab and ADC were analyzed by sandwich ELISA. Black NUNC® Maxisorp 96 plates were coated with Her2 protein at 100 ng/well. Samples were further diluted with PBS as needed to suit the linear detection range of 10 pg to 2 ng (for either Trastuzumab or ADC). After applying samples (fresh ADC dilutions were used as both total mAb and ADC standards) and washing, rabbit polyclonal anti-trastuzumab (for total mAb) or anti-MMAE (for total ADC) were applied as secondary antibodies while Goat anti-Rabbit IgG-HRP (Life-technologies) was used as the detection antibody. AMPLEX® Red (Cayman Chemical)/4-Iodophenol (Sigma)/H2O2 mixture was used as fluorescence substrate. Plates were read on SpectraMax GEMINI′ with 555 nm Ex and 585 nm Em.

[4] = target: IgG1 (Homo sapiens, UniProt P01857, D239E/L241M); test: mTgase-catalysed conjugation of IgG1 with MDC (HPLC); assay type: biochemical; conditions: high enzyme concentration
Sequence of IgG1 (P01857 with tags, fused parts or gaps isoform P01857-1 D239E/L241M, other chains not shown): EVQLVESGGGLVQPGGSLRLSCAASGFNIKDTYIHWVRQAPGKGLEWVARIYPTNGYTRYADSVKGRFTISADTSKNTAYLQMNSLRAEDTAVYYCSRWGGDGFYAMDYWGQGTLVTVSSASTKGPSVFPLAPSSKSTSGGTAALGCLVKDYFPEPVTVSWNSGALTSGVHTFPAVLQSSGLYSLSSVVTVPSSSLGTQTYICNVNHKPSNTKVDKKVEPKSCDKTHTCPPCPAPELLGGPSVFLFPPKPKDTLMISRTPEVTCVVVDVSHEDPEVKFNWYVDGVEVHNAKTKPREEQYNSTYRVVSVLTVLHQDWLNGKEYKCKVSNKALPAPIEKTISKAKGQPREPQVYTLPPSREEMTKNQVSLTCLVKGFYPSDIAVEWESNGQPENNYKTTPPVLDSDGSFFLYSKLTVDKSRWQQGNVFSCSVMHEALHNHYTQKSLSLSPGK
Method: MDC was chosen for this experiment because it has a primary amine and its fluorescence can be easily monitored. […] To purified IgG1 (1-10 mg/ml) in Tris-buffer (pH 6.5-8.5), add MDC (Sigma-Aldrich) in DMSO to final concentrations of 1-5 mM (final DMSO 2-10%). Add purified wildtype TG_SL or its mutant to a final concentration of 0.05-1.0 mg/ml. Incubate the reaction mixtures at 37° C. Reaction was followed by HPLC using phenyl hydrophobic interaction column (PHIC, Tosoh Bioscience LLC). At the beginning of the reaction, the product was dominated by DAR1, where only one heavy chain of IgG1 was coupled with MDC. As the reaction progressed, DAR 2, where both heavy chains of IgG1 are coupled with MDC, became the major product. Toward the end of reaction (8 hours at 0.2 mg/ml of mTgase at pH 7), conjugation yield reached 80% for DAR2 with 20% of DAR 1 left, or 90% for heavy chain (HC) when the sample was reduced by 10 mM TCEP and analyzed on C4-1000A column (Vydac) (see FIG. 6). The selective conjugation of MDC to HC was visualized on SDS PAGE (FIG. 7). Other mTgases, such as TG_SM from S. mobaraensis (purified from Ajinomoto's Activa TI), was also tested.

Molecule | IC50 [1] [nM] | IC50 [2] [nM] | stability in blood (ratio of ADC/mAb vs time) [3] | activity comparing to TG_SL [4]
PEG4 | 0.273 | 0.061 |  | 
PEG6 | 0.234 | 0.05 |  | 
PEG8 | 0.23 | 0.042 |  | 
PEG12 | 0.267 | 0.038 | completely stable in blood | 
B1 |  |  |  | about 30%
